Laboratory results published in the supplement of paper PMC13380429.

Assays:
Calu-3 [1] = experiment: cell viability relative to DMSO; higher = less toxic; details: 72 h
U2OS [2] = experiment: as above; details: 72 h
HepG2 [3] = experiment: as above; details: 72 h
Caco-2 [4] = experiment: as above; details: 72 h
Vero E6 [5] = experiment: as above; details: 72 h
A549-ACE2 = experiment: drug-induced phospholipidosis relative to tamoxifen; higher = more phospholipidosis
[6] = system: A549-ACE2 infected with SARS-CoV-2; experiment: cell count relative to DMSO; higher = less toxic; details: 24 h
[7] = system: A549-ACE2 infected with SARS-CoV-2; experiment: morphology score (similarity to uninfected cells); higher = more like uninfected cells; details: 24 h
Calu-3 [8] = experiment: drug sensitivity score (DSS) for viability; higher = more toxic; extreme values may be limits of the assay; details: 72 h
U2OS [9] = experiment: as above; details: 72 h
HepG2 [10] = experiment: as above; details: 72 h
Caco-2 [11] = experiment: as above; details: 72 h
Vero E6 [12] = experiment: as above; details: 72 h
Calu-3 [13] = experiment: relative viability EC50 (midpoint between 100% and the lowest measured viability); higher = less toxic; details: 72 h
HepG2 [14] = experiment: as above; details: 72 h
Vero E6 [15] = experiment: as above; details: 72 h
[16] = system: A549-ACE2 infected with SARS-CoV-2; experiment: SARS-CoV-2 infection rate relative to DMSO; higher = more infection; details: 24 h
U2OS [17] = experiment: relative viability EC50 (midpoint between 100% and the lowest measured viability); higher = less toxic; details: 72 h
Caco-2 [18] = experiment: as above; details: 72 h

Cc1c(-c2ccc(O)cc2)n(Cc2ccc(OCCN3CCCCCC3)cc2)c2ccc(O)cc12 [bazedoxifene]
Details	SARS-CoV-2 infection rate, [16] [%]	cell count, [6] [%]	cell viability, Caco-2 [4] [%]	cell viability, Calu-3 [1] [%]	cell viability, HepG2 [3] [%]	cell viability, U2OS [2] [%]	cell viability, Vero E6 [5] [%]	morphology score, [7]
1 nM	–	–	104	96.3	95.2	104	102	–
10 nM	–	–	95.3	91.5	106	101	105	–
100 nM	–	–	95.4	105	95.3	104	98.3	–
0.1 µM	97	99	–	–	–	–	–	0.02
0.3 µM	103	105	–	–	–	–	–	0.05
1000 nM	–	–	91.5	97.6	98.1	99.2	100	–
1 µM	85	103	–	–	–	–	–	0.36
3 µM	22	122	–	–	–	–	–	0.83
10000 nM	–	–	60.4	11.6	12.3	53	18.1	–

drug-induced phospholipidosis [%], A549-ACE2
Details	0.3 µM	0.833333 µM	3.33333 µM	6.66667 µM	10 µM
24 h	0.63	6.49	23.7	37.6	4.23
48 h	0.36	3.68	24.9	44.4	36.7
72 h	0.978	3.09	19.4	39.6	52.6

Details	drug sensitivity score	relative viability EC50 [µM]
Caco-2 [11]	3.3	–
Calu-3 [8]	5.2	–
Calu-3 [13]	–	2.97
HepG2 [10]	5.1	–
HepG2 [14]	–	3.01
U2OS [9]	2.5	–
Vero E6 [12]	4.5	–
Vero E6 [15]	–	3.18

COc1ccc2cc1Oc1ccc(cc1)C[C@H]1c3c(cc4c(c3Oc3cc5c(cc3OC)CCN(C)[C@@H]5C2)OCO4)CCN1C [cepharanthine]
Details	SARS-CoV-2 infection rate, [16] [%]	cell count, [6] [%]	cell viability, Caco-2 [4] [%]	cell viability, Calu-3 [1] [%]	cell viability, HepG2 [3] [%]	cell viability, U2OS [2] [%]	cell viability, Vero E6 [5] [%]	morphology score, [7]
1 nM	–	–	93.5	105	99.5	95.7	95.7	–
10 nM	–	–	102	107	87.8	104	98.8	–
100 nM	–	–	105	99.3	95.9	97	96	–
0.3 µM	98	104	–	–	–	–	–	0.04
1000 nM	–	–	108	96.5	87.7	97.7	88.9	–
3 µM	75	111	–	–	–	–	–	0.53
10000 nM	–	–	93.1	78.7	93.7	86.5	92.9	–
10 µM	69	122	–	–	–	–	–	0.79
30 µM	27	104	–	–	–	–	–	0.49

drug-induced phospholipidosis [%], A549-ACE2
Details	0.3 µM	0.833333 µM	3.33333 µM	6.66667 µM	10 µM	30 µM
24 h	9.38	2.99	21.4	34.2	49.7	34.6
48 h	6.7	5.05	19.4	29.3	35.4	–
72 h	6.61	3.04	15.2	24.3	32.4	–

Details	drug sensitivity score	relative viability EC50 [µM]
Caco-2 [11]	0	–
Caco-2 [18]	–	> 10
Calu-3 [8]	1.2	–
Calu-3 [13]	–	> 10
HepG2 [10]	0	–
HepG2 [14]	–	> 10
U2OS [9]	0.3	–
U2OS [17]	–	> 10
Vero E6 [12]	0	–
Vero E6 [15]	–	> 10

OCC(CO)N[C@H]1C[C@](O)(CO)[C@@H](O)[C@H](O)[C@H]1O [voglibose]
cell viability [%]
Details	Caco-2 [4]	Calu-3 [1]	HepG2 [3]	U2OS [2]	Vero E6 [5]
1 nM	94.4	97.8	98.2	103	97
10 nM	102	106	108	100	95.1
100 nM	93.7	98.4	102	100	94.3
1000 nM	98	101	100	98.2	93.8
10000 nM	106	108	111	97.5	104

Details	drug sensitivity score	relative viability EC50 [µM]
Caco-2 [11]	0	–
Caco-2 [18]	–	> 10
Calu-3 [8]	0	–
Calu-3 [13]	–	> 10
HepG2 [10]	0	–
HepG2 [14]	–	> 10
U2OS [9]	0	–
U2OS [17]	–	> 10
Vero E6 [12]	0	–
Vero E6 [15]	–	> 10

COc1cccc([C@H](O)C2CCN(CCc3ccc(F)cc3)CC2)c1OC [volinanserin]
cell viability [%]
Details	Caco-2 [4]	Calu-3 [1]	HepG2 [3]	U2OS [2]	Vero E6 [5]
1 nM	101	90.9	99.9	103	102
10 nM	97.3	104	99.9	96.2	99.9
100 nM	101	99.9	95.8	99.7	98.9
1000 nM	90.8	101	101	98.6	101
10000 nM	88.9	95.1	91.3	98.5	96.1

Details	drug sensitivity score	relative viability EC50 [µM]
Caco-2 [11]	0.2	–
Caco-2 [18]	–	> 10
Calu-3 [8]	0	–
Calu-3 [13]	–	> 10
HepG2 [10]	0	–
HepG2 [14]	–	> 10
U2OS [9]	0	–
U2OS [17]	–	> 10
Vero E6 [12]	0	–
Vero E6 [15]	–	> 10

CC(=O)CC(c1ccccc1)c1c(O)c2ccccc2oc1=O (stereo not drawn) [warfarin]
cell viability [%]
Details	Caco-2 [4]	Calu-3 [1]	HepG2 [3]	U2OS [2]	Vero E6 [5]
1 nM	98	100	100	96	101
10 nM	108	91.9	85.7	97.2	96.9
100 nM	101	104	94.8	98.3	105
1000 nM	95.1	97.8	98.5	102	103
10000 nM	99.7	115	107	94.9	97.1

Details	drug sensitivity score	relative viability EC50 [µM]
Caco-2 [11]	0	–
Caco-2 [18]	–	> 10
Calu-3 [8]	0	–
Calu-3 [13]	–	> 10
HepG2 [10]	0	–
HepG2 [14]	–	> 10
U2OS [9]	0	–
U2OS [17]	–	> 10
Vero E6 [12]	0	–
Vero E6 [15]	–	> 10

Cc1cc(-c2ccc(CC(=O)Nc3ccc(-c4cccnc4)cc3)cc2)ccn1 [wnt-c59]
cell viability [%]
Details	Caco-2 [4]	Calu-3 [1]	HepG2 [3]	U2OS [2]	Vero E6 [5]
1 nM	104	106	96.3	93.9	97.1
10 nM	94.8	106	110	93.6	101
100 nM	109	101	94.5	94.8	100
1000 nM	96.1	98	103	92.9	99.5
10000 nM	85	83.6	81.8	91.3	102

Details	drug sensitivity score	relative viability EC50 [µM]
Caco-2 [11]	0.6	–
Caco-2 [18]	–	> 10
Calu-3 [8]	0.5	–
Calu-3 [13]	–	> 10
HepG2 [10]	0.3	–
HepG2 [14]	–	> 10
U2OS [9]	0	–
U2OS [17]	–	> 10
Vero E6 [12]	0	–
Vero E6 [15]	–	> 10
